Patent EP1203770A1 (priority 1992, dated 1994)
“Also recorded” adds a separate entry of the source.

Assays:
[1] = system: testosterone 5α-reductase; assay: In vitro testosterone 5α-reductase inhibitor assay; assay type: biochemical; conditions: at a dose of at least 0.1 mM; dog and rat prostates
Procedure: The following five (5) compounds of the present invention were tested in an in vitro testosterone 5α-reductase inhibitor assay: 3-(α-Ethylbenzyl)-6-(α-ethylphenethyl)-4-hydroxy-2H-pyran-2-one; 6-(1-Benzyl-propyl)-3-(cyclopropyl-phenyl-methyl)-4-hydroxy-pyran-2-one; 3-(α-Ethylbenzyl)-6-(α-ethylbenzyl)-4-hydroxy-2H-pyran-2-one; 3-(α-Ethylbenzyl)-6-phenethyl-4-hydroxy-2H-pyran-2-one; 4-Hydroxy-3-(1-phenylpropyl)-6-[1-[(tetrahydro-2H-pyran-3-yl)methyl]propyl]-2H-pyran-2-one. This assay is very similar to those described in the following references, except for the use of dog and rat prostates in place of human prostates: Proc. Natl. Acad. Sci. USA, Vol. 90: 5277-5281 (1993); J. Steroid. Biochem. Molec. Biol., Vol. 44, No. 2, pp. 121-131 (1993). All five (5) compounds had activity in this assay at a dose of at least 0.1 mM.

HIV-1 protease = target: T1, HIV-1 protease (Human immunodeficiency virus type 1 group M subtype B, UniProt P04585); assay: In vitro HIV protease inhibitory assay (HIV Protease FITC Assay); assay type: biochemical
T1 construct: The protease (or proteinase), consisting of only 99 amino acids, is among the smallest enzymes known
In short: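 Biotin/FITC-labelled peptide substrate cleaved by HIV-1 protease for 1 h at room temperature in the dark, in 0.1 M sodium acetate pH 5.5, 1.0 M NaCl, 0.05% NP-40. Uncleaved substrate captured on avidin beads and separated by filtration; fluorescence gave % inhibition.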

HIV-1IIIB = assay: Inhibition of retroviral replication in infected human T-cell lines (MT4, H9); assay type: cell-based; conditions: e.g., MT4 and H9, infected with HIV-1IIIB
Procedure: Several compounds of the present invention, such as 3-(alpha-ethylbenzyl)-6-(alpha-ethylphenethyl)-4-hydroxy-2H-pyran-2-one, were tested in known human cell lines, such as human T-cell lines, e.g., MT4 and H9, which were infected with HIV-1IIIB, and certain of these compounds were further tested in peripheral blood mononuclear cells (PBMC), which were infected with HIV-1JRCSF (a clinical isolate).

[2] = Four week oral drug safety and toxicity study in beagle dogs (prostate size and weight); assay type: in vivo
Source text: Daily oral doses were divided into two (2) equal doses with at least seven (7) hours between the morning and afternoon dose. Parameters evaluated included twice daily clinical observations; daily evaluation of food and water consumption; twice weekly body weights; pretest and dosage day (dd) 15 or 16 and 24 or 25 electrocardiograms; pretest and dd 23 or 24 ophthalmology examinations; pretest and dd 1, 8, 14, 21 and 28 plasma drug levels; pretest and dd 8, 14, and 28 hemograms and serum chemistries; pretest and dd 14 and 28 urinalyses; terminal body weights, gross necropsy observations and absolute and relative organ weights; and histopathologic evaluation of organs and tissues.

[3] = HIV-1 Dose 1.000 uM, read-out: HIV-1 Protease % Inhib
[4] = HIV-1 Dose 10.000 uM, read-out: HIV-1 Protease % Inhib
[5] = male dogs, group 2, 50 mg/kg/day oral, 28 days, n=3
[6] = male dogs, group 3, 100 mg/kg/day oral, 28 days, n=3
[7] = male dogs, group 4, 200 mg/kg/day oral, 28 days, n=3
[8] = male dogs, group 5, 400 mg/kg/day oral, 28 days, n=3
[9] = repeat study, 400 mg/kg/day, 4 dogs
[10] = repeat study, male dogs, group 7, 400 mg/kg/day, n=4
[11] = HIV-1 Dose 100.000 uM, read-out: HIV-1 Protease % Inhib

## CCC(c1ccccc1)c1c(O)cc(CCc2ccccc2)oc1=O (stereo not drawn) [Example 3, 3-(α-ethylbenzyl)-6-phenethyl-4-hydroxy-2H-Pyran-2-one]
[1]
  activity in testosterone 5α-reductase inhibitor assay: had activity
HIV-1 protease; [3]
  inhibition at 1 µM: 19%
HIV-1 protease; [4]
  inhibition at 10 µM: 67.4%

## CCC(Cc1ccccc1)c1cc(O)c(C(CC)c2ccccc2)c(=O)o1 (stereo not drawn) [Example 13, 3-(α-ethylbenzyl)-6-(αethylphenethyl)-4-hydroxy-2H-Pyran-2-one]
[1]
  activity in testosterone 5α-reductase inhibitor assay: had activity
HIV-1IIIB
  retroviral replication: found to inhibit retroviral replication
[2]; high dose versus control
  light microscopic examination of testes, adrenals and pituitaries: did not show drug-related changes
[2]; [5]
  Absolute Weight (mean prostate weight): 8.87 GMs
  Relative Weight* (mean prostate weight): 0.088 % body weight
[2]; [6]
  Absolute Weight (mean prostate weight): 7.55 GMs
  Relative Weight* (mean prostate weight): 0.074 % body weight
[2]; [7]
  Absolute Weight (mean prostate weight): 4.58 GMs
  Relative Weight* (mean prostate weight): 0.046 % body weight
[2]; [8]
  Absolute Weight (mean prostate weight): 4.43 GMs
  Relative Weight* (mean prostate weight): 0.044 % body weight
[2]; male dogs, oral 50 to 400 mg/kg/day, 28 days
  prostate size and weight: dose-related decrease in prostate size and weight; also recorded: dose related decrease in prostate size and weight
[2]; [9]
  dogs with marked decreases of prostate weight: 1/4
  high dose dogs with lower absolute and relative prostate weights than controls: 2/4
[2]; [10]
  Absolute Weight (mean prostate weight): 5.65 GMs
  Relative Weight* (mean prostate weight): 0.055 % body weight
HIV-1 protease
  IC50: 1300 nM
HIV-1 protease; [3]
  inhibition at 1 µM: 79.5%
HIV-1 protease; [4]
  inhibition at 10 µM: 92%
HIV-1 protease; [11]
  inhibition at 100 µM: 72%

## CCC(Cc1ccccc1)c1cc(O)c(C(c2ccccc2)C2CC2)c(=O)o1 (centres unmarked) [Example 86, 6-(1-Benzyl-propyl)-3-(cyclopropyl-phenyl-methyl)-4-hydroxy-pyran-2-one]
[1]
  activity in testosterone 5α-reductase inhibitor assay: had activity
HIV-1 protease; [3]
  inhibition at 1 µM: 58.1%
HIV-1 protease; [4]
  inhibition at 10 µM: 83%
HIV-1 protease; [11]
  inhibition at 100 µM: 55.3%

## CCC(CC1CCCOC1)c1cc(O)c(C(CC)c2ccccc2)c(=O)o1 (centres unmarked) [Example 135, 4-Hydroxy-3-(1-phenylpropyl)-6-[1-[(tetrahydro-2H-pyran-3-yl)methyl]propyl]-2H-pyran-2-one]
[1]
  activity in testosterone 5α-reductase inhibitor assay: had activity
HIV-1 protease; HIV-1 Dose 0.123 uM, read-out: HIV-1 Protease % Inhib
  inhibition at 0.123 µM: 12.4%
HIV-1 protease; HIV-1 Dose 0.370 uM, read-out: HIV-1 Protease % Inhib
  inhibition at 0.37 µM: 26.5%
HIV-1 protease; HIV-1 Dose 1.100 uM, read-out: HIV-1 Protease % Inhib
  inhibition at 1.1 µM: 65.6%
HIV-1 protease; HIV-1 Dose 3.300 uM, read-out: HIV-1 Protease % Inhib
  inhibition at 3.3 µM: 87.9%
HIV-1 protease; [4]
  inhibition at 10 µM: 103%
HIV-1 protease; HIV-1 Dose 30.000 uM, read-out: HIV-1 Protease % Inhib
  inhibition at 30 µM: 99.9%
HIV-1 protease; read-out: HIV-1 FITC Ki
  Ki: 45 nM

## Dimethyl 3-[(4-hydroxy-2-oxo-6-phenyl-2H-1-pyran-3-yl)(3-nitrophenyl)methyl] -1,3-propandioate [Example 29]
HIV-1 protease; HIV-1 Dose 1.000 uM
  HIV-1 Protease % Inhib: <10%
HIV-1 protease; HIV-1 Dose 10.000 uM
  HIV-1 Protease % Inhib: <10%
HIV-1 protease; HIV-1 Dose 100.000 uM
  HIV-1 Protease % Inhib: 32.16%

## Dimethyl 3-[(4-hydroxy-2-oxo-6-phenyl-2H-1-pyran-3-yl)(4-nitrophenyl)methyl] - 1,3-propandioate [Example 28]
HIV-1 protease; HIV-1 Dose 1.000 uM
  HIV-1 Protease % Inhib: <10%
HIV-1 protease; HIV-1 Dose 10.000 uM
  HIV-1 Protease % Inhib: 15.07%
HIV-1 protease; HIV-1 Dose 100.000 uM
  HIV-1 Protease % Inhib: 76.68%
